Test results taken from US10994015B2, “EGFR proteolysis targeting chimeric molecules and associated methods of use” (Arvinas Operations, Inc., priority 2016, dated 2021).

Legend:
[1] = test system: AKT phosphorylation; assay: HGF-driven AKT phosphorylation in MDA-MB-231 cells (immunoblot); type: cell-based; settings: HGF pulse
Procedure: (§1) Cells were treated with the indicated concentrations of PROTAC or corresponding inhibiting diastereomer for the specified time and then harvested in lysis buffer (25 mM Tris.HCl pH 7.5 with 1% NP-40 and 0.25% deoxycholate, supplemented with 10 mM sodium pyrophosphate, 20 mM ß-glycerophosphate, 10 mM sodium fluoride, 1 mM sodium orthovanadate, 0.1 mM phenylarsine oxide, 10 μg/ml leupeptin, 10 μg/ml pepstatin A, 30 μg/ml bestatin, 0.3 trypsin inhibitor units/ml aprotinin and 1 mM PMSF). Following centrifugation at 16,000×g for 10 min at 4° C. to pellet insoluble materials, the protein concentrations of the supernatants were quantitated by BCA assay (Thermo Fisher Scientific). Protein samples were resolved by 8% SDS-PAGE, electrophoretically transferred to nitrocellulose and probed with the antibodies listed above. Immunoblots were developed using enhanced chemiluminescence and visualized using a Bio-Rad Chemi-Doc MP Imaging System and quantitated with Image Lab v.5.2.1 software (Bio-Rad Laboratories).

[2] = test system: GTL16 cells; assay: Cell-proliferation assay in GTL16 cells; type: cell-based; settings: Homo sapiens, GTL 16
Procedure: Cell Proliferation Assays
Following PROTAC or diastereomer treatment of cells as indicated, culture medium was supplemented with 330 μg/ml MTS (Promega Corp., Madison, Wis.) and 25 μM phenazine methosulfate (Sigma, St. Louis, Mo.) and incubated at 37° C. Mitochondrial reduction of MTS to the formazan derivative was monitored by measuring the medium's absorbance at 490 nm using a Wallac Victor^2 platereader (Perkin-Elmer Life Sciences, Waltham, Mass.). Data analysis and statistics performed using Prism v7.0 software (GraphPad Software).

[3] = molecular target: EGFR-Δ19 (HCC827) (Homo sapiens (Human), UniProt P00533, DEL746-750); assay: EGFR protein degradation assay (Western blot); type: cell-based; settings: 72 hours, 300 nM to 10 nM
[4] = molecular target: EGFR-wt (MDA-MB-231 or MCF7 or A549 or OVCAR8) (Homo sapiens (Human), UniProt P00533); assay: EGFR protein degradation assay (Western blot); type: cell-based; settings: 72 hours, 300 nM to 10 nM
Outline: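 Cells carrying the relevant EGFR form were plated at 300,000 per well in 6-well plates and left overnight to attach. For harvest, cells were rinsed once in ice-cold PBS and lysed in 400 μl lysis buffer containing protease inhibitors. Lysates were cleared at 10 000 rpm for 10 minutes and their protein content measured by BCA. Then 10 μg per sample was separated by SDS/PAGE at 165V for 2 hours, and EGFR was detected by ECL on a Chemidoc.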

[5] = molecular target: EGFR L858R/T790M double mutant (H1975) (Homo sapiens (Human), UniProt P00533, L858R/T790M); assay: EGFR protein degradation assay (Western blot); type: cell-based; settings: 72 hours, 300 nM to 10 nM
Outline: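 Cells carrying the relevant EGFR form were plated at 300,000 cells per well in 6-well plates and left to attach overnight. After washing in ice-cold PBS, cells were lysed in 400 μl lysis buffer with protease inhibitors, scraped, and clarified at 10 000 rpm for 10 minutes. EGFR levels were then assessed by Western blot with tubulin as loading control.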

[6] = molecular target: WT EGFR (Homo sapiens (Human), UniProt P00533); assay: Immunoblot of EGFR degradation in OVCAR8 cells; type: cell-based; settings: 24 hours
Procedure: as §1

[7] = molecular target: exon-19 deletion EGFR (Homo sapiens (Human), UniProt P00533, DEL746-750); assay: Immunoblot of EGFR degradation in HCC827 cells; type: cell-based; settings: 24 hours
Procedure: as §1

[8] = molecular target: L858R EGFR (Homo sapiens (Human), UniProt P00533, L858R); assay: Immunoblot of EGFR degradation in H3255 cells; type: cell-based; settings: 24 hours
Procedure: as §1

[9] = molecular target: HER2 InsYVMA (Homo sapiens (Human), UniProt P04626, INS775YVMA); assay: TR-FRET assay for ERBB kinases; type: biochemical; settings: geometric mean if measured more than once
Procedure: TR-FRET Assay for ERBB Kinases
All compounds and PROTACs were serially diluted in three-fold increments using 100% DMSO, followed by an intermediate 10-fold dilution using Buffer A (50 mM HEPES, pH 7.5, 50 mM NaCl, 10 mM MgCl2, 1 mM DTT, and 0.1% Pluronic F-68). Two microliters of serially diluted compound or PROTAC were then transferred to black 384-well Proxiplates (PerkinElmer, #6008260) using an Integra Viaflo96. Next, 10 uL of protein kinase in Buffer A was added to each well of the assay plate and pre-incubated with compound for 10 minutes. Kinase reactions were then initiated by addition of 5 uL substrate mix containing 3 mM ATP and 30 uM fluorescein-labeled Poly-GluTyr (Thermo Fisher, #PV3610) in Buffer A and allowed to proceed for 10 minutes at room temperature. Reactions were quenched by addition of a 5 uL mixture containing 5 nM LanthaScreen® Tb-pY20 Antibody (Thermo Fisher, #PV3552) and 40 mM EDTA in Buffer A. Assay plates were then read using a Synergy2 (Biotek Instruments, Winooski, Vt.) via excitation thru a 340/20 nm bandpass filter and emission collected thru 490/10 nm (donor) and 520/25 nm (acceptor) bandpass filters. The final kinase concentrations used for each 15 uL reaction were as follows: 0.2 nM EGFR Exon20NPG (SignalChem, #E10-132GG), 0.1 nM wild type EGFR (BPS Bioscience, #40187), 0.3 nM EGFR L858R/T790M/C797S (BPS Bioscience, #40351), 0.1 nM EGFR L858R (BPS Bioscience, #40189), 0.4 nM L858R/T790M (BPS Bioscience, #40350), InM EGFR Dell9 (SignalChem, #E10-122JG), 10 nM EGFR Dell9 T790M (SignalChem, #E10-122KG), 0.3 nM Her2 (BPS Bioscience, #40230), 15 nM Her2 InsYVMA (SignalChem, #E27-13BG).

[10] = molecular target: EGFR Δ19/746/750 T790M (Homo sapiens (Human), UniProt P00533, DEL746-750/T790M); assay: TR-FRET assay for ERBB kinases; type: biochemical; settings: geometric mean if measured more than once
Outline: (§2)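 Compounds pre-incubated 10 min with kinase in HEPES pH 7.5 buffer (MgCl2, DTT, Pluronic), then reaction started with substrate mix (3 mM ATP, 30 µM fluorescein-poly-GluTyr, stock levels) for 10 min at room temperature. EDTA-quenched, detected by Tb-pY20 antibody TR-FRET (520/490 nm emission).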

[11] = molecular target: HER2WT (Homo sapiens (Human), UniProt P04626); assay: TR-FRET assay for ERBB kinases; type: biochemical; settings: geometric mean if measured more than once
Outline: as §2

[12] = molecular target: EGFR Exon20NPG (Homo sapiens (Human), UniProt P00533, INS770NPG); assay: TR-FRET assay for ERBB kinases; type: biochemical; settings: geometric mean if measured more than once
Outline: as §2

[13] = molecular target: EGFR L858R (Homo sapiens (Human), UniProt P00533, L858R); assay: TR-FRET assay for ERBB kinases; type: biochemical; settings: geometric mean if measured more than once
Outline: as §2

[14] = molecular target: EGFR Δ19/746/750 (Homo sapiens (Human), UniProt P00533, DEL746-750); assay: TR-FRET assay for ERBB kinases; type: biochemical; settings: geometric mean if measured more than once
Outline: as §2

[15] = molecular target: EGFR L858R/T790M/C797S (Homo sapiens (Human), UniProt P00533, C797S/L858R/T790M); assay: TR-FRET assay for ERBB kinases; type: biochemical; settings: geometric mean if measured more than once
Outline: (§3)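 Read-out is TR-FRET between a terbium anti-phosphotyrosine (pY20) antibody and phosphorylated fluorescein-labelled poly-GluTyr, excited at 340 nm with donor 490 nm and acceptor 520 nm emission. Phosphorylation ran 10 min at room temperature after a 10 min compound–enzyme pre-incubation. The substrate mix contained 3 mM ATP.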

[16] = molecular target: EGFR WT (Homo sapiens (Human), UniProt P00533); assay: TR-FRET assay for ERBB kinases; type: biochemical; settings: geometric mean if measured more than once
Outline: as §3

[17] = molecular target: EGFR L858R/T790M (Homo sapiens (Human), UniProt P00533, L858R/T790M); assay: TR-FRET assay for ERBB kinases; type: biochemical; settings: geometric mean if measured more than once
Outline: as §3

[18] = molecular target: HER3 (Homo sapiens (Human), UniProt P21860); assay: TR-FRET assay for ERBB kinases; type: biochemical; settings: geometric mean if measured more than once
[19] = molecular target: EGFR Exon 20 ASV (HeLa*) (Homo sapiens (Human), UniProt P00533, DUP767-769); assay: EGFR protein degradation assay (Western blot); type: cell-based; settings: 72 hours, 300 nM to 10 nM

Sequence of HER2WT (P04626 23-1255): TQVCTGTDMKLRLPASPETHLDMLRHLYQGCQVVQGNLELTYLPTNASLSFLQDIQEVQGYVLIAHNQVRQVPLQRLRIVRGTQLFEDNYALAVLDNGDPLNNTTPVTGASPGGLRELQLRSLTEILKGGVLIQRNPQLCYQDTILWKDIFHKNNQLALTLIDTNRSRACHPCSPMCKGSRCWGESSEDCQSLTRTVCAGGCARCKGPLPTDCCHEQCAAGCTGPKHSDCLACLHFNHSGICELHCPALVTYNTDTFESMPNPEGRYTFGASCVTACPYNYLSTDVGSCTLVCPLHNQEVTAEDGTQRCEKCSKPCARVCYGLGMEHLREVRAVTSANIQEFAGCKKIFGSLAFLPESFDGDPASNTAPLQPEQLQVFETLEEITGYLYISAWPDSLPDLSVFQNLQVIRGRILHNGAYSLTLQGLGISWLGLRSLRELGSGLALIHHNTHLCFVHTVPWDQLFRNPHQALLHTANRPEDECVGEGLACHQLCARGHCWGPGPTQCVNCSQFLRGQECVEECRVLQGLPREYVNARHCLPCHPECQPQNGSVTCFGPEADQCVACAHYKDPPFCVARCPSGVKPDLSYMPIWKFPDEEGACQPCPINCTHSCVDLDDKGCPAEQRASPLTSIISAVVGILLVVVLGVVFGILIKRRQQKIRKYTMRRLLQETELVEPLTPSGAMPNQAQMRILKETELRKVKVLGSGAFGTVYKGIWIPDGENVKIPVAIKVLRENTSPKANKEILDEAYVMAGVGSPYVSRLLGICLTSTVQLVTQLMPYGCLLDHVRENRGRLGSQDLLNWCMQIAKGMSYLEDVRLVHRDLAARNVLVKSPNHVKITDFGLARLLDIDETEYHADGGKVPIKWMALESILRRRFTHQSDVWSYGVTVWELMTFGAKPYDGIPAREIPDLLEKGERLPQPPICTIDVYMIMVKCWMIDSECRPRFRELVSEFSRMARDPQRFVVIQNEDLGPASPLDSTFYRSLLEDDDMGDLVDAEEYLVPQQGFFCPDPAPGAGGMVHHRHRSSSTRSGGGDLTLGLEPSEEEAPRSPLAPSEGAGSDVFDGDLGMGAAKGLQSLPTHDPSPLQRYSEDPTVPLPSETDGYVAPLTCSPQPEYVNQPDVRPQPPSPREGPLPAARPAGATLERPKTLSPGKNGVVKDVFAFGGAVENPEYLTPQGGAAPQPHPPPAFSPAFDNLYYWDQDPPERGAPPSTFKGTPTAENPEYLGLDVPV
Sequence of HER2 InsYVMA (P04626 other isoform, or with tags, fused parts or gaps del 1-675/ins YVMA behind 775 limits assumed): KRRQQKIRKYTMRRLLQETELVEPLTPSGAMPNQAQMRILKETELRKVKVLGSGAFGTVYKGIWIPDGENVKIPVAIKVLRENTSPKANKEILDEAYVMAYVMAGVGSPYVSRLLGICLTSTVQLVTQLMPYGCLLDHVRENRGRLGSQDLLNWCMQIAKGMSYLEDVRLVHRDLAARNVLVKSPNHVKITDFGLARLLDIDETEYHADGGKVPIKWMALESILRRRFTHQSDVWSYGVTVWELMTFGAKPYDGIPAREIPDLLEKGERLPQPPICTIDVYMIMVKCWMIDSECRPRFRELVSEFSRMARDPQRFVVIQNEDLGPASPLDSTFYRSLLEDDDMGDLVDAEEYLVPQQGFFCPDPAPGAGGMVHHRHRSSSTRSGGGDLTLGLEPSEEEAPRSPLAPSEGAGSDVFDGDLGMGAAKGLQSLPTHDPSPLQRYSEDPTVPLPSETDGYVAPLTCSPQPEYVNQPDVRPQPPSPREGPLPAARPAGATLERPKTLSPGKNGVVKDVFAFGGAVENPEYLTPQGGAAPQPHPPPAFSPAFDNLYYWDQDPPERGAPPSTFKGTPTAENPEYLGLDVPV
Sequence of HER3 (P21860 20-1342, species assumed): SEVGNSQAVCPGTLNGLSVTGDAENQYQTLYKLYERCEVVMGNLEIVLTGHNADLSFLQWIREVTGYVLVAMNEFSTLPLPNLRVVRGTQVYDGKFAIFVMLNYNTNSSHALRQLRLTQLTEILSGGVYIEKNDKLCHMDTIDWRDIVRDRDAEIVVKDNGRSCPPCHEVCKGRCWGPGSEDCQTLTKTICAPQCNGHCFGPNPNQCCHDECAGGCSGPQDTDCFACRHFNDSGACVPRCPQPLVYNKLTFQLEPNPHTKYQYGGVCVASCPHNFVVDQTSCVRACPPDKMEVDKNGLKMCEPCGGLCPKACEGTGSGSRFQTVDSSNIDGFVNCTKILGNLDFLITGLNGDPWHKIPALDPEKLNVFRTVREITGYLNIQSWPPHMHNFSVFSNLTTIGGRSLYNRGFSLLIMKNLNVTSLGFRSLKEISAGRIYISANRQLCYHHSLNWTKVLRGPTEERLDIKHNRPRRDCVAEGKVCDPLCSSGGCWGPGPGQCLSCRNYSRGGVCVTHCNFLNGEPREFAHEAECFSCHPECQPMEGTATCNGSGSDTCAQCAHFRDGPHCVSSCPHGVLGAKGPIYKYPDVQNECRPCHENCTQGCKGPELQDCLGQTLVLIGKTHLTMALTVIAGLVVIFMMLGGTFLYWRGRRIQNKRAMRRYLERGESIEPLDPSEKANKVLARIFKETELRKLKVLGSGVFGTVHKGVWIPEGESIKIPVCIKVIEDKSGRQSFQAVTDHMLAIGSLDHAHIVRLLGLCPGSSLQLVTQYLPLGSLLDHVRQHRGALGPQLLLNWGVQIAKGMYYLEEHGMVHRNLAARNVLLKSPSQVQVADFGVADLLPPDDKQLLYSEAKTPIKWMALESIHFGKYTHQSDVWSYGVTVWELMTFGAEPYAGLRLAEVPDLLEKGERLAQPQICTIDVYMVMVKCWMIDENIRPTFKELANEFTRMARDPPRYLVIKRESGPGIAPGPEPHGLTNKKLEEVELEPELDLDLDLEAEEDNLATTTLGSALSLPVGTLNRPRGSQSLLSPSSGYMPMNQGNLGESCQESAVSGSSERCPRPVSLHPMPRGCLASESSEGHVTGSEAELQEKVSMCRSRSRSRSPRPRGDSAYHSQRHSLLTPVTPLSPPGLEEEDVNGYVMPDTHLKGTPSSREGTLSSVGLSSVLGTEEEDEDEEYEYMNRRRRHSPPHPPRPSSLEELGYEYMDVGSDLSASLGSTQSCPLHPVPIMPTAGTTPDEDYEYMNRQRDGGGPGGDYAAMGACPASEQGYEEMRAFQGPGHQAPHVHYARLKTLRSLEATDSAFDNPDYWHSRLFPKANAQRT

Compound	EGFR protein remaining, EGFR-Δ19 [3]	EGFR protein remaining, EGFR-wt [4]	EGFR protein remaining, EGFR L858R/T790M double mutant [5]	IC50 [9] [µM]	IC50 [10] [µM]	IC50 [11] [µM]	IC50 [12] [µM]	IC50 [13] [µM]	IC50 [14] [µM]	IC50 [15] [µM]	IC50 [16] [µM]	IC50 [17] [µM]	also measured
COc1cc2c(Oc3ccc(N(C(=O)C4(C(N)=O)CC4)c4ccc(F)cc4)cc3F)ccnc2cc1OCCCOCCCOCCC(=O)N[C@H](C(=O)N1C[C@@H](O)C[C@H]1C(=O)NCc1ccc(-c2scnc2C)cc1)C(C)(C)C (single isomer, unassigned) [diastereomer 8]													fold higher concentration than PROTAC 7 required to completely inhibit agonist-driven AKT phosphorylation [1]: approximately 10 fold; IC50 [2]: 0.156 µM
(2S,4R)-1-((S,E)-2-(tert-butyl)-16-((4-((4-chloro-3-fluorophenyl)amino)-7-methoxyquinazolin-6-yl)amino)-12-methyl-4,16-dioxo-6,9-dioxa-3,12-diazahexadec-14-enoyl)-4-hydroxy-N-(4-(4-methylthiazol-5-yl)benzyl)pyrrolidine-2-carboxamide [Example 41]	A (≤50% EGFR protein remaining after 72 hours of incubation with the test compound at a concentration between 300 nM and 10 nM)	A (≤50% EGFR protein remaining after 72 hours of incubation with the test compound at a concentration between 300 nM and 10 nM)	B (≤80% and >50% EGFR protein remaining after 72 hours of incubation with the test compound at a concentration between 300 nM and 10 nM)										
COc1cc2ncnc(Nc3ccc(F)c(Cl)c3)c2cc1OCCCCCOCCOCCC(=O)N[C@H](C(=O)N1C[C@H](O)C[C@H]1C(=O)NCc1ccc(-c2scnc2C)cc1)C(C)(C)C [PROTAC 3]													EGFR degradation (immunoblot) [6]: sparing the WT EGFR; degradation of exon-19 deletion EGFR (immunoblot) [7]: enabled the degradation; degradation of L858R EGFR (immunoblot) [8]: enabled the degradation
COC1CCN(c2nccc(Nc3cc4c(cn3)nc(COCCN3CCN(c5ccc6c(c5)C(=O)N(C5CCC(=O)NC5=O)C6=O)CC3)n4C(C)C)n2)CC1 (stereo not drawn) [Example 71, 2-(2,6-dioxopiperidin-3-yl)-5-(4-(2-((1-isopropyl-6-((2-(4-methoxypiperidin-1-yl)pyrimidin-4-yl)amino)-1H-imidazo[4,5-c]pyridin-2-yl)methoxy)ethyl)piperazin-1-yl)isoindoline-1,3-dione]			C (>80% EGFR protein remaining after 72 hours of incubation with the test compound at a concentration of 300 nM)	13	3.1	> 30	> 30	26	> 30	0.096	30	0.12	
COC1CCN(c2nccc(Nc3cc4c(cn3)nc(COCCOCCOCCOc3ccc5c(c3)C(=O)N(C3CCC(=O)NC3=O)C5=O)n4C(C)C)n2)CC1 (stereo not drawn) [Example 70, 2-(2,6-dioxopiperidin-3-yl)-5-(2-(2-(2-((1-isopropyl-6-((2-(4-methoxypiperidin-1-yl)pyrimidin-4-yl)amino)-1H-imidazo[4,5-c]pyridin-2-yl)methoxy)ethoxy)ethoxy)ethoxy)isoindoline-1,3-dione]			C (>80% EGFR protein remaining after 72 hours of incubation with the test compound at a concentration of 300 nM)	19	11	> 30		> 30	> 30	16	> 30	15	
COc1cc2ncnc(Nc3ccc(F)c(Cl)c3)c2cc1NC(=O)/C=C/CN(C)CCCOCCCOCC(=O)N[C@H](C(=O)N1CC(O)C[C@@H]1C(=O)NCc1ccc(-c2scnc2C)cc1)C(C)(C)C (stereo partly drawn) [compound 48]	A (≤50% EGFR protein remaining after 72 hours of incubation with the test compound at a concentration between 300 nM and 10 nM)	B (≤80% and >50% EGFR protein remaining after 72 hours of incubation with the test compound at a concentration between 300 nM and 10 nM)	B (≤80% and >50% EGFR protein remaining after 72 hours of incubation with the test compound at a concentration between 300 nM and 10 nM)				0.12			7	0.0047	3	IC50 [18]: 20 µM; EGFR protein remaining, EGFR Exon 20 ASV [19]: C (>80% EGFR protein remaining after 72 hours of incubation with the test compound at a concentration of 300 nM)
